Data: patent US9907797B2, “Combination therapies for overcoming resistance to mitotic agents during chemotherapy” (EMORY UNIVERSITY, priority 2014, dated 2018)

Columns and labels:
[1] = tested on: A549 cells; assay: Colony formation assays in A549 cells transfected with shRNA; assay type: cell-based
Method: Various cell lines of different tissues of origin and with different CHFR expression status were exposed to 1 hour of docetaxel and 72 hours of ‘A3’. Effects were defined as 1−colony count (treatment)/colony count (control). The nature of the interaction between the two compounds was analyzed by the Bliss additivity method. […] For subsequent colony formation assays, cell lines were characterized into CHFR expressing vs. CHFR deficient cell lines by Western-Blot.
FIG. 4D knock-down of either CHFR or PARP1 in A549 cells alleviates the synergy that is observed in A549 cells transfected with scrambled shRNA. (*=synergy)
Finally, colony formation assays were performed on a panel of cell lines of different cancer types such as lung-, breast-, and colon cancer.

[2] = tested on: CHFR-PARP1 interaction; assay: Glutathione affinity purification of Ring-domain deleted ΔR-CHFR and PARP1 in HEK293 cells; assay type: cell-based; settings: increasing concentrations, 16 hours, ΔR-CHFR construct
Method: (§1) HEK293 cells were stably transfected with the pDEST27-AR-CHFR construct. Deletion of the RING domain in this construct leads to both stable CHFR and PARP1 expression that is unaltered by treatment with increasing concentrations of ‘A3’ for 16 hours. Nonetheless, the interaction between glutathione-affinity purified CHFR-ΔR and PARP1 was decreased by ‘A3’ in a dose dependent fashion. A549 cells were incubated for 16.5 hrs with MG132 and indicated A3 concentration for 16 hrs. At 10 uM A3 concentration CHFR staining is diminished in the nucleus Cells are stained with CHFR.
(§2) In an attempt to generate possible lead compounds for the pharmacologic inhibition of the CHFR-PARP1 interaction, a high throughput computational screen of 5,256,508 chemical structures in the MCULE database of purchasable compounds using the AutoDockVina algorithm against the published crystal structure of the CHFR-PBZ domain was performed. The 10 most promising ‘hits’ based on Autodock Vina docking scores (<−9.7) were selected for further characterization. Commercially available compounds were tested for their impact on nuclear CHFR levels (FIG. 3A). […] The impact of the above referenced compounds on the PARP1/CHFR interaction were evaluated. HEK293 cells were transfected with GST tagged PARP1 and the interaction with CHFR determined in pull down assays for those 4 compounds. […]

[3] = molecular target: T1, CHFR (Homo sapiens, UniProt Q96EP1); assay: CHFR protein levels in A549 nuclear extracts; assay type: cell-based; parameters: endogenous in cells; host or cells: A549
T1 sequence (Q96EP1 1-664): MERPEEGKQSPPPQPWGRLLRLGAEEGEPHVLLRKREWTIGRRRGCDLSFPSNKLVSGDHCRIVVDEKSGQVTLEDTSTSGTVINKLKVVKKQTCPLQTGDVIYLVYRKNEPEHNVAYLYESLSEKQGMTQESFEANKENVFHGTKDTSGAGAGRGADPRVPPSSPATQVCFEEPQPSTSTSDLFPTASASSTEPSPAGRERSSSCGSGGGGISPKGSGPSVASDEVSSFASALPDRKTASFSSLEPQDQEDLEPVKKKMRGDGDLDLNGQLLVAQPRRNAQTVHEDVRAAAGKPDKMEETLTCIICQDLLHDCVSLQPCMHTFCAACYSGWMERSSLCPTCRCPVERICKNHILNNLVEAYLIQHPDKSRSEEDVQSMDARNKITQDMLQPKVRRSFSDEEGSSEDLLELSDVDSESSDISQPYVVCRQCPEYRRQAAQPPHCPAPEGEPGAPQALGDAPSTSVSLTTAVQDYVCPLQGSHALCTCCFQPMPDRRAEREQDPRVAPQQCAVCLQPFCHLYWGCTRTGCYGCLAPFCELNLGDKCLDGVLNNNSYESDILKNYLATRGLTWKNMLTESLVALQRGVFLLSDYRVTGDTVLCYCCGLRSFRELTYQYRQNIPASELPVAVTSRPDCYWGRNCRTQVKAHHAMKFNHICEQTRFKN
Method: as §1, §2

[4] = molecular target: T1, CHFR; assay: CHFR immunohistochemistry in A549 tumor xenografts; assay type: in vivo, nude mice; parameters: endogenous in cells; host or cells: A549 cells grown as flank xenografts in nude mice; settings: single ip injection 10 mg/kg
Method: 4 hrs after i.p. injection a significant reduction in nuclear CHFR staining was observed, indicating an in vivo reproducible pharmacodynamic effect of ‘A3’.
‘A3’ is capable of disrupting the interaction between CHFR and PARP1 in vitro, leading to a depletion of CHFR expression and to sensitization towards the cytotoxic effects of taxanes. The impact of ‘A3’ administration on lung tumor xenografts was evaluated. A549 NSCLC cells were injected into the flank of nude mice and allowed to establish for approximately 14 days. Once tumors had reached a volume about 100 mm3, mice received a single ip injection of ‘A3’ at 10 mg/kg. Mice were then euthanized at 1, 2, 4 and 24 hours after and CHFR in the xenografts was analyzed by immunohistochemistry (FIG. 5A).

[5] = molecular target: T2, PARP1-CHFR interaction (Homo sapiens, UniProt Q96EP1); assay: Glutathione affinity pull-down of GST tagged PARP1 with CHFR in HEK293 cells; assay type: cell-based; settings: 10 uM, 16 hours
T2 construct: expressed in transfected cells; CHFR endogenous
T2 sequence (Q96EP1 1-664): T1 sequence (Q96EP1 1-664)
Method: In an attempt to generate possible lead compounds for the pharmacologic inhibition of the CHFR-PARP1 interaction, a high throughput computational screen of 5,256,508 chemical structures in the MCULE database of purchasable compounds using the AutoDockVina algorithm against the published crystal structure of the CHFR-PBZ domain was performed. The 10 most promising ‘hits’ based on Autodock Vina docking scores (<−9.7) were selected for further characterization. Commercially available compounds were tested for their impact on nuclear CHFR levels (FIG. 3A). Several compounds, including ‘A2’, ‘A3’, ‘A4’ and ‘A6’ decreased CHFR levels assayed by western blotting of whole cell extracts. The impact of the above referenced compounds on the PARP1/CHFR interaction were evaluated. HEK293 cells were transfected with GST tagged PARP1 and the interaction with CHFR determined in pull down assays for those 4 compounds. […] In contrast to treatment with ABT-888, ‘A3’ completely disrupted the interaction between GST-tagged PARP-1 and CHFR (FIG. 3B). […] Since it is possible that the co-immunoprecipitation between PARP-1 and CHFR after ‘A3’ treatment was negative due to the fact that CHFR was degraded, the experiment was repeated after transfection with the Ring-domain deleted ΔR-CHFR construct, which maintained both stable CHFR and PARP1 levels even after treatment with ‘A3’. […]

[6] = tested on: A549 cells; assay: Cell viability assay, A3 with docetaxel; assay type: cell-based
[7] = molecular target: PARP1 (Homo sapiens, UniProt P09874); assay: In vitro parylation studies; assay type: biochemical
PARP1, sequence (P09874 whole entry, species assumed): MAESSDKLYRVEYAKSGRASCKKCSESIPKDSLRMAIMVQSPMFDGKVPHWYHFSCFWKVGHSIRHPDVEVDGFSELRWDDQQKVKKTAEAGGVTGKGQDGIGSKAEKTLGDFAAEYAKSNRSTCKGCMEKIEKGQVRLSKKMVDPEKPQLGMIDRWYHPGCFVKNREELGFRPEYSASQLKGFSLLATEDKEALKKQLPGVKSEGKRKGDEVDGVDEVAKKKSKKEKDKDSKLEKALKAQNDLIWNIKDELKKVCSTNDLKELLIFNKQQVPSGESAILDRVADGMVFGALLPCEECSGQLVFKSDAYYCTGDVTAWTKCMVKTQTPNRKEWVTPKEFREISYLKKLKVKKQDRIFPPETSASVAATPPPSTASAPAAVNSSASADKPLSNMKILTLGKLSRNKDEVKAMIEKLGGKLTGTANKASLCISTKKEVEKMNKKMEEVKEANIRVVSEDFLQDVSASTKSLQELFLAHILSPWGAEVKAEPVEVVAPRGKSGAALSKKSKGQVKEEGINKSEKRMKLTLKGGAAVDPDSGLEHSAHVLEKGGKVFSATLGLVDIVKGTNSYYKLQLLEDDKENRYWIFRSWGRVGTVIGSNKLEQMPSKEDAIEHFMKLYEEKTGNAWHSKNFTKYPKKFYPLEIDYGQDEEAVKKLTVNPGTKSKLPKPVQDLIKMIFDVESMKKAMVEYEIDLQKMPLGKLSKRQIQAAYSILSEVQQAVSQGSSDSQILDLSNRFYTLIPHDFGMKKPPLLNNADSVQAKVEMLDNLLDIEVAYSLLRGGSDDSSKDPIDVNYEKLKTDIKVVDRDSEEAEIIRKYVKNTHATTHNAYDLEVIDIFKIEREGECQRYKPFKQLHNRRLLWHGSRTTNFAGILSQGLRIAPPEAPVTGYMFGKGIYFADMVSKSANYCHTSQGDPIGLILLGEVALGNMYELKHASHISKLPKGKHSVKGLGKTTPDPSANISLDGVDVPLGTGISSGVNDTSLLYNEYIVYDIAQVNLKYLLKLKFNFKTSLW

[8] = Pharmacokinetics, plasma concentrations by LC/MS/MS; assay type: in vivo; settings: CD1 mice
Method: The in vivo properties of ‘A3’ were evaluated. The pharmacokinetics of ‘A3’ after a single oral (25 mg/kg) and intravenous (10 mg/kg) dose of in CD1 mice were determined. Plasma was obtained at pre-specified time points (15 min to 24 hours) and ‘A3’ concentrations were determined by LC/MS/MS. […] Oral bioavailability of ‘A3’ was insignificant. The time-point of maximal CHFR suppression at 4 hrs follow the peak in A3 plasma levels with some delay.

## Cc1ccc(N2C(=O)NC(=O)C(=Cc3cn(Cc4ccccc4)c4ccccc34)C2=O)cc1C [A3, 5-((1-benzyl-1H-indol-3-yl)methylene)-1-(3,4-dimethylphenyl)pyrimidine-2,4,6(1H,3H,5H)-trione]
[1]; A549 after CHFR or PARP1 knockdown
  synergy between A3 and docetaxel, colony formation: not after CHFR or PARP1 knockdown
[1]; A549 scrambled shRNA
  synergy between A3 and docetaxel, colony formation: Synergy between A3 and docetaxel was maintained only in the A549 scramble cell line
[2]
  interaction between CHFR-ΔR and PARP1: dose dependent inhibition of the interaction between CHFR and PARP1
[3]; 10 uM, 16 hrs, A549
  CHFR protein levels: complete disappearance of CHFR
[3]; low concentrations of A3
  CHFR protein levels: initial increase in CHFR protein levels
[4]; 24 hr time point
  nuclear CHFR expression in xenografts: restored to baseline levels
[4]; after 4 hours
  nuclear CHFR expression in xenografts: Significant suppression of nuclear CHFR expression
[5]
  interaction between PARP1 and CHFR: completely inhibited an interaction between PARP1 and CHFR
[6]; 10 and 20 uM/nM concentrations
  nature of interaction of A3 and docetaxel by combination index: synergistic effects
[6]; A3 plus docetaxel, 10 and 20 nM concentrations, 72 hours, p<0.01
  cell viability, combination treated cells: statistically significantly decreased viability
[6]; A3 with docetaxel, A549 cells, 72 hours, Chou-Talaley method
  Combination index (CI): < 1
[7]
  PARP1 auto-parylation: no impact on PARP1 auto-parylation
[8]; following intravenous dosing 10 mg/kg
  distribution: rapidly and widely distributed
[8]; single oral (25 mg/kg) and intravenous (10 mg/kg) dose
  relative bioavailability from dose normalized AUC values: 19.5%
[8]; single oral dose 25 mg/kg
  Oral bioavailability: insignificant
